PMC8715118, “Assessing potentiation of the (α4)3(β2)2 nicotinic acetylcholine receptor by the allosteric agonist CMPI” (The Journal of Biological Chemistry, 2021)
“And” between values parts separate entries of the source, which are not always exact repeats. Equal entries are not always repeated. Where two headings read alike, the source gives them in different places. Values belong to the compound of their own block, whether it stands above or below them.

Columns and labels:
(α4)3(β2)2 nAChR [1] = target: T1, (α4)3(β2)2 nAChR (Homo sapiens, UniProt P17787+P43681); experiment: Two-electrode voltage-clamp whole-cell currents, Xenopus oocytes expressing WT (α4)3(β2)2 nAChR; assay type: cell-based
T1 construct: expressed in transfected cells; host or cells: Xenopus laevis oocytes injected with cRNA, 8:1 α4:β2
T1 sequence (P43681 27-627): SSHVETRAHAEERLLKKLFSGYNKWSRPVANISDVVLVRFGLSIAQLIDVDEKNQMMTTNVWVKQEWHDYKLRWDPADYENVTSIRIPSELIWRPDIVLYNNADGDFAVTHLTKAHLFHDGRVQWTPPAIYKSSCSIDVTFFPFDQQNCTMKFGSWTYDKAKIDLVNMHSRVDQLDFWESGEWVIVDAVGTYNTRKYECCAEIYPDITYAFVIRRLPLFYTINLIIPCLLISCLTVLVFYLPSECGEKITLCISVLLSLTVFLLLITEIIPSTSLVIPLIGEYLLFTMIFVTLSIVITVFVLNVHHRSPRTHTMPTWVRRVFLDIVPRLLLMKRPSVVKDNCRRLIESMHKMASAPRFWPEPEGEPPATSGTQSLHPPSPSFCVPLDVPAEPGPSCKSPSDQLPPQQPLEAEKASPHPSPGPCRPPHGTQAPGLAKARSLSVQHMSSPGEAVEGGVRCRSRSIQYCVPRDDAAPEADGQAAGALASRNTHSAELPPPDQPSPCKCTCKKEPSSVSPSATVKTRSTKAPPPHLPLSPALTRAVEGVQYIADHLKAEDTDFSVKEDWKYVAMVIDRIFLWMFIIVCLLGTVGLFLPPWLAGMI
T1 sequence (P17787 26-502): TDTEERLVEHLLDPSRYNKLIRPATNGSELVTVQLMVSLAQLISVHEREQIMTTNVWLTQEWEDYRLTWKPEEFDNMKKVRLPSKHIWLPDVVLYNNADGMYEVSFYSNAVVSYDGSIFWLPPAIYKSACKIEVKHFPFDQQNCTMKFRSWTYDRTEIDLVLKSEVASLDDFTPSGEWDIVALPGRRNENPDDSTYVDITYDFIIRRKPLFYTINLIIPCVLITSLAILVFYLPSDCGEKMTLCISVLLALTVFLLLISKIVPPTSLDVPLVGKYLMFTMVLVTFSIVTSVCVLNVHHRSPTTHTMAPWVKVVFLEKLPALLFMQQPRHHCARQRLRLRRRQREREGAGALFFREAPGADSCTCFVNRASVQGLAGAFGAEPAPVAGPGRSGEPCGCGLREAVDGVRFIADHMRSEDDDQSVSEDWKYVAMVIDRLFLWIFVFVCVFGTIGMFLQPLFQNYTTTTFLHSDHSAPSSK
Experimental: (§1) Oocytes-positive female Xenopus laevis were purchased from NASCO, and all procedures were performed according to an animal use protocol approved by the Institutional Animals Care and Use Committee of The University of Texas Health Science Center at Tyler. Ovarian lobules were surgically harvested, treated with collagenase type 2, and Stage V and VI oocytes were visually selected and maintained at 18 °C in modified ND96-gentamicin buffer (96 mM NaCl, 2 mM KCl, 1.8 mM CaCl2, 1 mM MgCl2, 5 mM Hepes, and 50 μg/ml gentamicin, pH 7.6).
(§2) pSP64 Poly(A) plasmids with cDNA encoding for human α4 or β2 nAChR subunit were used to prepare cRNA transcripts suitable for oocyte expression. The plasmids were linearized with AseI (hα4) and PvuII (hβ2), then cRNA transcripts were prepared in vitro using mMESSAGE mMACHINE high yield-capped RNA transcription kits (Ambion, Thermo Fisher Scientific), purified on NucAway Spin column (Invitrogen, Thermo Fisher Scientific), and stored at −80 °C until used. Point mutations within the plasmid encoding the α4 nAChR subunit were introduced using QuikChange II Site-Directed Mutagenesis Kit (Agilent Technologies), as described previously ([28]). To generate amino acid substitutions (K64T, E66I, H116V, H116L, and H116A), two custom-designed complementary oligos containing the desired mutation were used (Integrated DNA Technologies). The forward primers were as the following with the codon for mutated amino acids are underlined and nucleotide(s) changes are bolded and italicized:
(§3) The oocytes were injected with 10 to 50 ng of a cRNA mix containing α4 (WT or mutant) and β2 RNAs at ratios of 8:1(α4:β) or 1:8 (α4:β2) to bias expression toward (α4)3(β2)2 or (α4)2(β2)3 nAChRs, respectively. The injection of oocytes with RNAs mixture containing four folds or higher α4 RNA than β2 RNA have been established to express receptor population that is made up of three α4 and two β2 subunits ([9], [12], [28], [43], [44], [45]).
(§4) 24 to 72 h after cRNA injection, Xenopus oocytes were placed in a custom-made recording chamber that is connected to an eight-channel automated perfusion system (Warner Instruments) and perfused with recording buffer (100 mM NaCl, 2 mM KCl, 1 mM CaCl2, 0.8 mM MgCl2, 1 mM EGTA, and 10 mM Hepes, pH 7.5). Unless otherwise specified in figure legends, each recording run included several drug applications (10 s of an agonist with or without CMPI or NS9283) separated by 3 to 4 min buffer wash intervals. Between recording runs, the oocytes were washed with recording buffer for at last 5 min. The oocytes were voltage-clamped at −50 mV using Oocyte Clamp OC-725B (Warner Instruments). The currents were digitized using Digidata 1550A (Axon Instruments, Molecular Devices), and the peak currents were quantified using pCLAMP 10 (Axon Instruments), then normalized and analyzed using Excel 2010 (Microsoft) and SigmaPlot 11.0 (Systat Software). For NS9283 and CMPI potentiation of agonist-induced responses, the peak currents were normalized to current elicited by agonist alone applied within the same recording run. For the effect of coapplication of 1 μM NS9283 or CMPI on agonist concentration-response curve, the peak currents were normalized to current elicited by saturating concentration of agonist applied within the same recording run. […] I0 = 100 for NS9283 and CMPI potentiation of agonist-induced responses and I0 = 0 for agonist concentration-response experiments. The best-fit values for Imax and EC50 ± SD are presented.

(α4)3(β2)2 nAChR [2] = target: T1, (α4)3(β2)2 nAChR; experiment: Mechanistic (Monod-Wyman-Changeux two-state model) analysis of current responses, WT (α4)3(β2)2 nAChR; assay type: cell-based; conditions: for Kd / c, ratio of equilibrium dissociation constants active/resting receptor: WT; for peak PA: calculated with Equation 2
Text: To gain mechanistic insight into receptor activation in the presence of CMPI, we analyzed the currents in the framework of a cyclic two-state (resting and active) allosteric activation model ([31], [32], [33]). In this model, channel opening is mediated by stabilization of the active state by an agonist that, by definition, has higher affinity to the active than resting state.
We commenced by converting the raw amplitudes of current responses to units of probability of being in the active state (PA units).
Further analysis of electrophysiological data was conducted in the framework of the two-state concerted transition model, adapted from the MWC cyclic model originally used to describe enzyme function ([31], [32], [33]). The raw peak amplitudes of current responses were converted to units of probability of being in the active state (PA).
The numbers of α4:β2 and α4:α4 binding sites (Nα4:β2 and Nα4:α4) were constrained to 2 and 1, respectively.
The concentration-response curve for TC-2559 was fitted to the following equation:(3) PA=1/1+L[1+[TC-2559]/KR,TC-2559,α4:β2/1+[TC-2559]/(KR,TC-2559,α4:β2cTC-2559,α4:β2)]^Nα4:β2
The concentration-response data were analyzed using Equation 3, with the value of L modified to reflect receptor activation by TC-2559, and the affinity and efficacy terms in the equation reflecting the values for CMPI. The number of binding sites for CMPI in Equation 3 was constrained to 1.
Curve fitting was done using Origin 2020 (OriginLab Corp). The results are reported as best-fit parameter ±SD of the fit. All data are included in the analysis.

nAChR = test system: nAChR; set-up: method as in PMID 1378342; conditions: nonselective, allosteric antagonist; cited from earlier work
(α4H116V)3(β2)2 nAChR = target: T2, (α4H116V)3(β2)2 nAChR (Homo sapiens, UniProt P17787+P43681, H142V); experiment: Two-electrode voltage-clamp, oocytes expressing (α4H116V)3(β2)2 nAChR; assay type: cell-based
T2 construct: expressed in transfected cells; host or cells: Xenopus laevis oocytes injected with cRNA, 8:1 α4:β2
T2 sequence (P43681 27-627 H142V): as the sequence (P43681 27-627) above, with H116V counted along it
T2 sequence (P17787 26-502): as the sequence (P17787 26-502) above
Experimental: as §1, §2, §3
(§5) 24 to 72 h after cRNA injection, Xenopus oocytes were placed in a custom-made recording chamber that is connected to an eight-channel automated perfusion system (Warner Instruments) and perfused with recording buffer (100 mM NaCl, 2 mM KCl, 1 mM CaCl2, 0.8 mM MgCl2, 1 mM EGTA, and 10 mM Hepes, pH 7.5). Unless otherwise specified in figure legends, each recording run included several drug applications (10 s of an agonist with or without CMPI or NS9283) separated by 3 to 4 min buffer wash intervals. Between recording runs, the oocytes were washed with recording buffer for at last 5 min. […] The currents were digitized using Digidata 1550A (Axon Instruments, Molecular Devices), and the peak currents were quantified using pCLAMP 10 (Axon Instruments), then normalized and analyzed using Excel 2010 (Microsoft) and SigmaPlot 11.0 (Systat Software). […]

(α4E66I)3(β2)2 nAChR = target: T3, (α4E66I)3(β2)2 nAChR (Homo sapiens, UniProt P17787+P43681, E92I); experiment: Two-electrode voltage-clamp, oocytes expressing (α4E66I)3(β2)2 nAChR; assay type: cell-based
T3 construct: expressed in transfected cells; host or cells: Xenopus laevis oocytes injected with cRNA, 8:1 α4:β2
T3 sequence (P43681 27-627 E92I): as the sequence (P43681 27-627) above, with E66I counted along it
T3 sequence (P17787 26-502): as the sequence (P17787 26-502) above
Experimental: as §1, §2, §3, §5

(α4H116A)3(β2)2 nAChR = target: T4, (α4H116A)3(β2)2 nAChR (Homo sapiens, UniProt P17787+P43681, H142A); experiment: Two-electrode voltage-clamp, oocytes expressing (α4H116A)3(β2)2 nAChR; assay type: cell-based; conditions: 1 μM modulator
T4 construct: expressed in transfected cells; host or cells: Xenopus laevis oocytes injected with cRNA, 8:1 α4:β2
T4 sequence (P43681 27-627 H142A): as the sequence (P43681 27-627) above, with H116A counted along it
T4 sequence (P17787 26-502): as the sequence (P17787 26-502) above
Experimental: as §1, §2, §3, §4

(α4H116L)3(β2)2 nAChR = target: T5, (α4H116L)3(β2)2 nAChR (Homo sapiens, UniProt P17787+P43681, H142L); experiment: Two-electrode voltage-clamp, oocytes expressing (α4H116L)3(β2)2 nAChR; assay type: cell-based
T5 construct: expressed in transfected cells; host or cells: Xenopus laevis oocytes injected with cRNA, 8:1 α4:β2
T5 sequence (P43681 27-627 H142L): as the sequence (P43681 27-627) above, with H116L counted along it
T5 sequence (P17787 26-502): as the sequence (P17787 26-502) above
Experimental: as §1, §2, §3, §5

(α4K64T)3(β2)2 nAChR = target: T6, (α4K64T)3(β2)2 nAChR (Homo sapiens, UniProt P17787+P43681, K90T); experiment: Two-electrode voltage-clamp, oocytes expressing (α4K64T)3(β2)2 nAChR; assay type: cell-based
T6 construct: expressed in transfected cells; host or cells: Xenopus laevis oocytes injected with cRNA, 8:1 α4:β2
T6 sequence (P43681 27-627 K90T): as the sequence (P43681 27-627) above, with K64T counted along it
T6 sequence (P17787 26-502): as the sequence (P17787 26-502) above
Experimental: as §1, §2, §3, §5

Compound: O=c1cccc2n1C[C@@H]1CNC[C@H]2C1 [cytisine]
current response produced by a saturating concentration (100 μM), % of current elicited by 1 mM ACh ((α4)3(β2)2 nAChR [1]; 100 μM agonist): 10 ± 1%
I100 μM cytisine + 1 μM CMPI ((α4)3(β2)2 nAChR [1]; % of 100 μM cytisine alone): 91 ± 5%
I100 μM cytisine + 1 μM NS9283 ((α4)3(β2)2 nAChR [1]; % of 100 μM cytisine alone, data not shown): 113 ± 9%
EC50 ((α4)3(β2)2 nAChR [1]; agonist alone, read-out: agonist EC50): 11 ± 6 µM
current response at subsaturating concentration, % of the current response to 1 mM ACh ((α4)3(β2)2 nAChR [1]; subsaturating (1 μM) agonist): 2.3 ± 0.4%
Kd ((α4)3(β2)2 nAChR [2]; KR, equilibrium dissociation constant in the resting receptor, α4:α4 site): 8.3 ± 0.5 µM
Kd ((α4)3(β2)2 nAChR [2]; read-out: KR, equilibrium dissociation constant in the resting receptor, α4:β2 site): 0.63 ± 1.24 µM
c, ratio of equilibrium dissociation constants active/resting receptor ((α4)3(β2)2 nAChR [2]; α4:α4 site): 0.155 ± 0.104
c, ratio of equilibrium dissociation constants active/resting receptor ((α4)3(β2)2 nAChR [2]; α4:β2 site): 0.875 ± 0.029

Compound: CC(=O)OCC[N+](C)(C)C [ACh, Acetylcholine chloride]
PA,1 mM ACh (peak probability of being in the active state) ((α4)3(β2)2 nAChR [2]; 1 mM ACh, normalized to 1 mM ACh + 3 μM dFBr): 0.36 ± 0.05 and 0.36
free energy change toward stabilization of the active state (ΔGgating) ((α4)3(β2)2 nAChR [2]; binding to the single α4:α4 site): -1.27 kcal/mol
free energy change toward stabilization of the active state (ΔGgating,total) ((α4)3(β2)2 nAChR [2]; binding to the two α4:β2 sites): -1.69 kcal/mol
peak PA ((α4)3(β2)2 nAChR [2]; occupation of the two α4:β2 sites and the single α4:α4 site with ACh): 0.36
peak PA ((α4)3(β2)2 nAChR [2]; occupation of the two α4:β2 sites with ACh): 0.072
ΔGgating per site ((α4)3(β2)2 nAChR [2]; per α4:β2 site): -0.84 kcal/mol

outward current, mean amplitude, % of the absolute response to 1 mM ACh ((α4)3(β2)2 nAChR [1]; 100 μM mecamylamine, holding current): 2.1 ± 0.5%
Compound: CNC1(C)C2CCC(C2)C1(C)C (centres unmarked) [mecamylamine]
IC50s (nAChR): submicromolar range

potentiation fold (Ave ± SD), agonist + 1 μM modulator / agonist alone ((α4H116V)3(β2)2 nAChR; ACh (1 mM)): 0.90 ± 0.02
potentiation fold (Ave ± SD), agonist + 1 μM modulator / agonist alone ((α4H116V)3(β2)2 nAChR; TC 2559 (30 μM)): 0.87 ± 0.06
maximal potentiation ((α4)3(β2)2 nAChR [1]; 1 μM TC-2559): 1800 ± 307%
effect on responses to agonists at subsaturating concentrations ((α4)3(β2)2 nAChR [1]; 1 μM modulator, ACh, nicotine, cytisine, TC-2559, p < 0.001): potentiated
effect on responses to saturating concentrations of the tested agonists ((α4)3(β2)2 nAChR [1]; 1 μM modulator, except for TC-2559): did not potentiate
maximal potentiation ((α4)3(β2)2 nAChR [1]; 10 μM TC-2559): 1522 ± 41%
potentiation fold (Ave ± SD), agonist + 1 μM modulator / agonist alone ((α4)3(β2)2 nAChR [1]; ACh (1 mM), 1 μM modulator): 1.00 ± 0.04
potentiation fold (Ave ± SD), agonist + 1 μM modulator / agonist alone ((α4)3(β2)2 nAChR [1]; TC 2559 (30 μM), 1 μM modulator): 5.05 and 5.05 ± 1.66
EC50 ((α4)3(β2)2 nAChR [1]; responses induced by 1 μM TC-2559, read-out: potentiation EC50): 1.9 ± 0.2 µM
EC50 ((α4)3(β2)2 nAChR [1]; responses induced by 10 μM TC-2559, read-out: potentiation EC50): 1.8 ± 0.12 µM
potentiation fold (Ave ± SD), agonist + 1 μM modulator / agonist alone ((α4E66I)3(β2)2 nAChR; ACh (1 mM)): 0.95 ± 0.07
potentiation fold (Ave ± SD), agonist + 1 μM modulator / agonist alone ((α4E66I)3(β2)2 nAChR; TC 2559 (30 μM)): 2.68 ± 1.08
potentiation fold (Ave ± SD), agonist + 1 μM modulator / agonist alone ((α4H116A)3(β2)2 nAChR; ACh (1 mM)): 0.98 ± 0.03
potentiation fold (Ave ± SD), agonist + 1 μM modulator / agonist alone ((α4H116A)3(β2)2 nAChR; TC 2559 (30 μM)): 0.93 ± 0.12
potentiation fold (Ave ± SD), agonist + 1 μM modulator / agonist alone ((α4H116L)3(β2)2 nAChR; ACh (1 mM)): 0.95 ± 0.03
potentiation fold (Ave ± SD), agonist + 1 μM modulator / agonist alone ((α4H116L)3(β2)2 nAChR; TC 2559 (30 μM)): 1.18 ± 0.17
potentiation fold (Ave ± SD), agonist + 1 μM modulator / agonist alone ((α4K64T)3(β2)2 nAChR; ACh (1 mM)): 1.10 ± 0.08
potentiation fold (Ave ± SD), agonist + 1 μM modulator / agonist alone ((α4K64T)3(β2)2 nAChR; TC 2559 (30 μM)): 4.72 ± 2.27
Compound: N#Cc1cccc(-c2nc(-c3cccnc3)no2)c1 [NS9283, 3-[3-(3-pyridinyl)-1,2,4-oxadiazol-5-yl]benzonitrile]
